In paper PMC10923520 (Science Advances, 2024):

System: A549 (EGFR^WT) cells
Assay: MTT cell viability inhibition assay, A549 cells
Assay type: cell-based
Settings: Homo sapiens, A549, 72 h, read-out: IC50 (μM) A549 (EGFR^WT)

`C=CC(=O)Nc1cc(Nc2nccc(-c3cn(C)c4ccccc34)n2)c(OC)cc1N(C)CCN(C)C` [Osimertinib, osimertinib] showed an IC50 of 0.6864 ± 0.0045 µM.
